Reference: ChEMBL document CHEMBL5512655, “Discovery of indolylacryloyl-derived oxacins as novel potential broad-spectrum antibacterial candidates” (Eur J Med Chem, 2024)
Converted amounts (≈) assume the structure as drawn. The source made the active and inactive calls. The calls are words filed in the database; no cut-off is given here.

Legend:
[1] = test system: Cell membrane; assay: Induction of cell membrane damage in methicillin-resistant Staphylococcus aureus N315 assessed as increase in density of red fluorescence at 4 times of MIC by Calcein-AM/PI dual staining based fluorescence microscopy; format: cell membranes
[2] = test system: Acinetobacter baumannii; assay: Antibacterial activity against Acinetobacter baumannii assessed as inhibition of bacterial growth measured after 24 hrs incubation; format: functional
[3] = Hemolytic activity in human red blood cells assessed as hemolysis rate at 512 ug/ml relative to control; format: toxicity, cell-based, Erythrocyte; settings: red blood cells (erythrocytes), at 512 µg/mL, read-out: Activity
[4] = test system: Staphylococcus aureus; assay: Antibacterial activity against Staphylococcus aureus assessed as inhibition of bacterial growth measured after 24 hrs incubation; format: functional
[5] = test system: Calf thymus DNA; assay: Binding affinity to calf thymus DNA assessed as DNA intercalation with drug by […] assay; format: nucleic-acid assay; settings: Bos taurus
[6] = test system: Escherichia coli; assay: Antibacterial activity against Escherichia coli assessed as reduction in bacterial burden at 2 to 4 times of MIC measured within 5 hrs by time-dependent kinetics assay; format: functional, organism-based
[7] = test system: Cell membrane; assay: Induction of cytoplasmic membrane integrity loss in methicillin-resistant Staphylococcus aureus N315 assessed as increase in fluorescence intensity at 0.5 to 6 times of MIC by Propidium iodide method; format: cell membranes
[8] = test system: Staphylococcus aureus; assay: Reduction in metabolic activity in methicillin-resistant Staphylococcus aureus N315 at 6 times of MIC by Alamar Blue assay relative to control; format: functional; set-up: scale not given: the % may be the effect or the level left
[9] = test system: Calf thymus DNA; assay: Binding affinity to calf thymus DNA by acridine orange staining based competitive binding assay; format: nucleic-acid assay; settings: Bos taurus
[10] = Cytotoxicity against human L02 cells assessed as cell viability at 16 ug/ml measured after 24 hrs relative to control; format: toxicity, cell-based; settings: at 16 µg/mL, read-out: Activity
[11] = test system: Pseudomonas aeruginosa; assay: Antibacterial activity against Pseudomonas aeruginosa ATCC 27853 assessed as inhibition of bacterial growth measured after 24 hrs incubation; format: functional
[12] = test system: Staphylococcus aureus; assay: Anti-biofilm effect in methicillin-resistant Staphylococcus aureus N315 assessed as biofilm destruction by measuring reduced biofilm content at MIC; format: functional
[13] = test system: Escherichia coli; assay: Induction of lipid peroxidation in Escherichia coli assessed as malondialdehyde (MDA) level production at 4 time of MIC; format: functional, organism-based
[14] = test system: Escherichia coli; assay: Induction of lipid peroxidation in Escherichia coli assessed as malondialdehyde (MDA) level production; format: functional, organism-based

## CCOC(=O)Cn1cc(/C=C(\C#N)C(=O)N2CCN(c3cc4c(cc3F)c(=O)c(C(=O)O)cn4CC)CC2)c2ccccc21
[1]
  Activity: Active
[2]
  MIC: 0.25 µg/mL (≈ 0.417 µM)
[3]
  hemolysis at 512 ug/ml: < 5%
[4]
  MIC: 0.25 µg/mL (≈ 0.417 µM)
[5]
  Activity: Active
[6]
  Activity: Active
[7]
  Activity: Active
[8]
  Activity: >50%
[9]
  Activity: Active
[10]
  viability at 24 h, 16 ug/ml: 80%
[11]
  MIC: 0.5 µg/mL (≈ 0.834 µM)
[12]
  inhibition (INH): 68.8%
[13]
  Activity: Active
[14]
  Activity: Dose-Dependent Effect
